From BindingDB's records for doi:10.1021/jm00099a006 (Merck Research Laboratories, 1992) come the findings set out here.

As a reminder, the IC50 is the midpoint of a concentration-inhibition curve. High values mean weaker potency in that assay, low ones greater potency in that assay.

Some results are limits rather than exact numbers.

The test concerns the target T1, Gag-Pol polyprotein [588-1027]/[588-1147] (Human immunodeficiency virus 1, UniProt P04585).
T1 construct: 588-1027; 588-1147
As to the kind of experiment: HIV-1 RT Assay. As to conditions: pH 8.2.
In the case of `O=C1c2ccccc2C(=O)N1CCc1cccnc1O` [2-[2-(2-oxo-1,2-dihydropyridin-3-yl)ethyl]-2,3-dihydro-1H-isoindole-1,3-dione], the IC50 was above 300 µM. Turning to `CCc1cc(C(O)CN2C(=O)c3ccccc3C2=O)c(OC)nc1C` (stereo not drawn) [2-[2-(5-ethyl-2-methoxy-6-methylpyridin-3-yl)-2-hydroxyethyl]-2,3-dihydro-1H-isoindole-1,3-dione], the IC50 is above 300 µM. `CCc1cc(C(=O)CN2C(=O)c3ccccc3C2=O)c(OC)nc1C` [2-[2-(5-ethyl-2-methoxy-6-methylpyridin-3-yl)-2-oxoethyl]-2,3-dihydro-1H-isoindole-1,3-dione] showed an IC50 above 300 µM. `CCc1cc(CCN2C(=O)c3ccccc3C2=O)c(OC)nc1C` [2-[2-(5-ethyl-2-methoxy-6-methylpyridin-3-yl)ethyl]-2,3-dihydro-1H-isoindole-1,3-dione]: the IC50 amounted to 6.2 µM.

Turning to `CCc1cc(C(O)CN2C(=O)c3ccccc3C2=O)c(O)nc1C` (stereo not drawn) [2-[2-(5-ethyl-6-methyl-2-oxo-1,2-dihydropyridin-3-yl)-2-hydroxyethyl]-2,3-dihydro-1H-isoindole-1,3-dione], the IC50 was above 300 µM. As for `CCc1cc(C(=O)CN2C(=O)c3ccccc3C2=O)c(=O)[nH]c1C` [2-[2-(5-ethyl-6-methyl-2-oxo-1,2-dihydropyridin-3-yl)-2-oxoethyl]-2,3-dihydro-1H-isoindole-1,3-dione], the IC50 is above 300 µM. Turning to `CCc1cc(CCCN2C(=O)c3ccccc3C2=O)c(OC)nc1C` [2-[3-(5-ethyl-2-methoxy-6-methylpyridin-3-yl)propyl]-2,3-dihydro-1H-isoindole-1,3-dione], the IC50 was above 300 µM. As for `CCc1cc(CN2C(=O)c3ccccc3C2=O)c(OC)nc1C` [2-[(5-ethyl-2-methoxy-6-methylpyridin-3-yl)methyl]-2,3-dihydro-1H-isoindole-1,3-dione], half-maximal inhibition (IC50) was put at 16 µM.
